Reference: patent US12083115B2, “Methods for treating neurological symptoms associated with lysosomal storage diseases” (Genzyme Corporation, priority 2020, dated 2024)
Where two headings read alike, the source gives them in different places.

Key:
Format in all cases: in vivo, human
[1] = Study 2: ascending repeated-dose PK in healthy adults; settings: for AUC0-24, Geometric mean / AUC0-24, Mean / Cmax, Geometric mean / Cmax, Mean / tmax, median / CLR(0-24), Mean / CLss/F, Geometric mean / CLss/F, Mean / Ctrough, Geometric mean / Ctrough, Mean / CLR(0-24), Geometric mean / half-life: N = 9; for half-life: plasma
Description: (§1) The study enrolled and randomized 36 healthy adults (19 men and 17 women) (n=9 each to group).
(§2) Pharmacodynamic endpoints (plasma GL-1, GL-3, and GM3 concentrations) were assessed on Days 1-5, 8, 11, 13, and 14, at 0 hours […]; and on Day 15, at 24 hours after the Day 14 dose.

[2] = system: plasma GL-3 (globotriaosylceramide); experiment: Study 2: plasma GL-3 pharmacodynamics
Description: as §1, §2

[3] = system: adult patients with Gaucher disease Type 3; experiment: Clinical study in GD-3 patients: ataxia, SARA scale; set-up: key to SARA Cumulative Score, Average Score excluding Patient 4 / SARA Cumulative Score: SARA, eight ataxia attributes summed, 0-40 scale; key to mean improvement in SARA score: change in SARA score (0-40 scale)
Description: The endpoint assessments are related to safety, CSF biomarkers, pharmacokinetics/pharmacodynamics, systemic disease, and neuroimaging and neurological function (CNS/neurological manifestations).
During the study patients were evaluated for safety and tolerability, CSF and plasma biomarkers (glucosylceramide, GL-1; glucosylsphingosine, lyso-GL1), pharmacokinetics, markers for systemic disease (spleen and liver volume measured by magnetic resonance imaging (MRI), platelet count, hemoglobin levels), indicia of interstitial lung disease (high resolution pulmonary computed tomography (CT)), and horizontal saccadic eye movement. In addition, exploratory biomarkers were quantified in CSF of GD3 patients: ceramide (the precursor of GL-1), chitotriosidase (CHITO), GM3, and GPNMB. Symptoms of ataxia were measured using the SARA scale, neurological symptoms were measured using the trail making test, and functional MRI was used to assess neural connectivity in the brain.
The degree of ataxia at baseline and throughout the study was evaluated by the Scale for Assessment and Rating of Ataxia (SARA; Schmitz-Hubsch et al. [2006]), which assesses eight distinct attributes of cerebellar ataxia on a scale of 0-40. The eight attributes are gait, stance, sitting, speech disturbance, finger chase, nose-finger test, fast alternate hand movement, and heel-shin slide. SARA ataxia scoring results for all six patients is presented in the chart below: […]

[4] = repeated once-daily doses from 5-20 mg

CC(C)(NC(=O)O[C@@H]1CN2CCC1CC2)c1csc(-c2ccc(F)cc2)n1 [Compound 2, (S)-quinuclidin-3-yl 2-(2-(4-fluorophenyl)thiazol-4-yl)propan-2-ylcarbamate]
Ctrough values over time ([1]; 5, 10, or 20 mg once daily for 14 days): reached a plateau after Day 5
median time of plasma Cmax ([1]; 5, 10, or 20 mg once daily for 14 days, Days 1 and 14): 2 to 5 h
AUC0-24, Geometric mean ([1]; Day 1, 5 mg once daily): 292 ng·h/mL
AUC0-24, Mean ([1]; Day 1, 5 mg once daily): 296 ng·h/mL
Cmax, Geometric mean ([1]; Day 1, 5 mg once daily): 18.2 ng/mL
Cmax, Mean ([1]; Day 1, 5 mg once daily): 18.5 ng/mL
tmax, median ([1]; Day 1, 5 mg once daily): 5.00 h
AUC0-24, Geometric mean ([1]; Day 1, 10 mg once daily): 623 ng·h/mL
AUC0-24, Mean ([1]; Day 1, 10 mg once daily): 635 ng·h/mL
Cmax, Geometric mean ([1]; Day 1, 10 mg once daily): 37.8 ng/mL
Cmax, Mean ([1]; Day 1, 10 mg once daily): 38.5 ng/mL
tmax, median ([1]; Day 1, 10 mg once daily): 3.00 h
AUC0-24, Geometric mean ([1]; Day 1, 20 mg once daily): 1,080 ng · h/mL
AUC0-24, Mean ([1]; Day 1, 20 mg once daily): 1,100 ng · h/mL
Cmax, Geometric mean ([1]; Day 1, 20 mg once daily): 66.5 ng/mL
Cmax, Mean ([1]; Day 1, 20 mg once daily): 68.0 ng/mL
tmax, median ([1]; Day 1, 20 mg once daily): 3.07 h
AUC0-24, Geometric mean ([1]; Day 14, 5 mg once daily): 632 ng·h/mL
AUC0-24, Mean ([1]; Day 14, 5 mg once daily): 642 ng·h/mL
CLR(0-24), Mean ([1]; Day 14, 5 mg once daily): 1.55 L/h
CLss/F, Geometric mean ([1]; Day 14, 5 mg once daily): 5.9 L/h
CLss/F, Mean ([1]; Day 14, 5 mg once daily): 5.98 L/h
Cmax, Geometric mean ([1]; Day 14, 5 mg once daily): 36.5 ng/mL
Cmax, Mean ([1]; Day 14, 5 mg once daily): 37.0 ng/mL
Ctrough, Geometric mean ([1]; Day 14, 5 mg once daily): 19.0 ng/mL
Ctrough, Mean ([1]; Day 14, 5 mg once daily): 19.4 ng/mL
tmax, median ([1]; Day 14, 5 mg once daily): 3.00 h
AUC0-24, Geometric mean ([1]; Day 14, 10 mg once daily): 1,490 ng · h/mL
AUC0-24, Mean ([1]; Day 14, 10 mg once daily): 1,550 ng · h/mL
CLR(0-24), Geometric mean ([1]; Day 14, 10 mg once daily): 1.4 L/h
CLR(0-24), Mean ([1]; Day 14, 10 mg once daily): 1.49 L/h
CLss/F, Geometric mean ([1]; Day 14, 10 mg once daily): 5.0 L/h
CLss/F, Mean ([1]; Day 14, 10 mg once daily): 5.13 L/h
Cmax, Geometric mean ([1]; Day 14, 10 mg once daily): 86.0 ng/mL
Cmax, Mean ([1]; Day 14, 10 mg once daily): 89.7 ng/mL
Ctrough, Geometric mean ([1]; Day 14, 10 mg once daily): 47.5 ng/mL
Ctrough, Mean ([1]; Day 14, 10 mg once daily): 49.9 ng/mL
tmax, median ([1]; Day 14, 10 mg once daily): 2.00 h
AUC0-24, Geometric mean ([1]; Day 14, 20 mg once daily): 2,340 ng · h/mL
AUC0-24, Mean ([1]; Day 14, 20 mg once daily): 2,420 ng · h/mL
CLR(0-24), Geometric mean ([1]; Day 14, 20 mg once daily): 2.0 L/h
CLR(0-24), Mean ([1]; Day 14, 20 mg once daily): 2.07 L/h
CLss/F, Geometric mean ([1]; Day 14, 20 mg once daily): 6.4 L/h
CLss/F, Mean ([1]; Day 14, 20 mg once daily): 6.58 L/h
Cmax, Geometric mean ([1]; Day 14, 20 mg once daily): 137 ng/mL
Cmax, Mean ([1]; Day 14, 20 mg once daily): 142 ng/mL
Ctrough, Geometric mean ([1]; Day 14, 20 mg once daily): 69.9 ng/mL
Ctrough, Mean ([1]; Day 14, 20 mg once daily): 73.3 ng/mL
tmax, median ([1]; Day 14, 20 mg once daily): 3.00 h
half-life ([1]; both sexes, human, oral, 5 mg, Day 14, 5 mg once daily, read-out: t1/2, Geometric mean (converted)): 1740 min
half-life ([1]; both sexes, human, oral, 5 mg, Day 14, 5 mg once daily, read-out: t1/2, Mean (converted)): 1760 min
half-life ([1]; both sexes, human, oral, 10 mg, Day 14, 10 mg once daily, read-out: t1/2, Geometric mean (converted)): 1870 min
half-life ([1]; both sexes, human, oral, 10 mg, Day 14, 10 mg once daily, read-out: t1/2, Mean (converted)): 1880 min
half-life ([1]; both sexes, human, oral, 20 mg, Day 14, 20 mg once daily, read-out: t1/2, Geometric mean (converted)): 2070 min
half-life ([1]; both sexes, human, oral, 20 mg, Day 14, 20 mg once daily, read-out: t1/2, Mean (converted)): 2100 min
CL renal ([1]; both sexes, human, urine and plasma, oral, After 14 once-daily doses, 5-20 mg, read-out: Mean CLR(0-24)): 24.8 to 34.5 mL/min
effect of age and gender on accumulation [1, 4]: neither age nor gender affected accumulation
time to steady state [1, 4]: ≤ 5 days
subjects with GL-3 values below LLOQ ([2]; Day 15, 5-mg dose group (3 at baseline)): 9 subjects
subjects with GL-3 values below LLOQ ([2]; Day 15, 10-mg dose group (1 at baseline)): 7 subjects
subjects with GL-3 values below LLOQ ([2]; Day 15, 20-mg dose group (6 at baseline)): 9 subjects
Plasma GL-3 over time ([2]; all Compound 2 dose groups, low baseline values relative to LLOQ): decreased with time
mean SARA Score ([3]; Excluding Patient 4, by Week 26, further slightly improved by Week 52): significantly decreased
SARA Cumulative Score ([3]; Patient 1, Week 52, screening 3.0, 15 mg/day + imiglucerase): 0.0
SARA Cumulative Score ([3]; Patient 4, Week 52, screening 3.0, 15 mg/day + imiglucerase): 4.5
SARA Cumulative Score ([3]; Patient 5 (low Compound 2 exposure), Week 26, screening 0.5): 0.0
SARA Cumulative Score ([3]; Patient 5 (low Compound 2 exposure), Week 52, screening 0.5): 0.0
mean improvement in SARA score ([3]; Week 52, Excluding Patient 5 (SD=3.2)): −0.9
SARA Cumulative Score, Average Score excluding Patient 4 ([3]; Week 52, screening 2.80): 0.90
